The values below come from publication PMC5354814, “In silico and in vitro drug screening identifies new therapeutic approaches for Ewing sarcoma” (Oncotarget, 2016).

Like-named read-outs stand apart in the source and are kept apart here.

In one series the test system is human lymphocyte. The arrangement: method as in ref 19 (a number printed in a supplementary file, which may have a reference list of its own: not looked up in the article's list). As to conditions: 0.1 - 1.0 µg auranofin/mL; cited from earlier work.
Details of series [1]: method as in ref 19 (a number printed in a supplementary file, which may have a reference list of its own: not looked up in the article's list). The conditions noted are these: intravenous, 20 mg auranofin/kg; cited from earlier work.
Another series deals with mouse lymphoma. The arrangement: method as in ref 18, ref 19. The conditions noted are these: 313 to 700 ng/mL, in the presence of a rat liver microsomal preparation; cited from earlier work. (In general: Liver microsomes are a subcellular fraction often used to study metabolism.)
For another series, the system named is ovarian cancer. The arrangement: method as in PMID 25502607. As to conditions: 3 mg auranofin orally twice per day, 10 patients, 95% CI: 1.3–3.8; cited from earlier work.
The conditions of series [2]: cited from earlier work; for grossly malformed fetuses: rabbits, days 6-18 of pregnancy.
For the next series, the system named is mouse L929 fibroblasts. The arrangement: method as in ref 19 (a number printed in a supplementary file, which may have a reference list of its own: not looked up in the article's list). The conditions noted are these: 1µM auranofin; cited from earlier work.
On the set-up of series [3]: method as in ref 19 (a number printed in a supplementary file, which may have a reference list of its own: not looked up in the article's list). As to conditions: 5 and 10 mg gold/kg p.o.; cited from earlier work.
Series [4] can be described thus: Other animal xenograft models, oral auranofin. The class given is in vivo. The conditions noted are these: unpublished data. An excerpt: As previously reported, Ridaura® was first developed for the management of rheumatoid arthritis as a disease-modifying anti-rheumatic drug (DMARD). However, the adverse effects and the concerns about the long-term consequences of the immunosuppression induced by Ridaura® led to the decline in its use. […] Therefore, we sought to determine if altering the route of delivery could replicate the dramatic in vitro anticancer activity and improve its efficacy in vivo. Previous studies have shown that orally delivered auranofin is rapidly metabolized and intact auranofin has never been detected in the blood. Thus, studies of the pharmacokinetics of auranofin have involved measurement of gold concentrations. Upon oral administration, 25% of auranofin gets absorbed.

The test system of a further series is rate leukocytes. The arrangement: method as in ref 19 (a number printed in a supplementary file, which may have a reference list of its own: not looked up in the article's list). As to conditions: 10^-3 to 10^-6M; cited from earlier work.
In a further series the test system is A673 cells. The series can be described thus: siRNA silencing of EWS-FLI1 followed by auranofin treatment (CellTiter-Blue). The class given is cell-based. The conditions noted are these: then auranofin 72 h. As for the experimental part: To knock down the expression of EWS-FLI1 in A673 Ewing cells, we designed two different siRNAs, corresponding to the sequence within the 3′ downstream half of EWS-FLI1 mRNA (siFLI1-#3) and the sequence of the breakpoint of EWS-FLI1 type I mRNA (siBPEF1) respectively. To examine whether the siRNAs could abolish the expression of EWS-FLI1, the effects of siRNAs on the protein levels of EWS-FLI1 were analyzed by western blot (see Supplementary methods).
(B) Cell viability was assessed by the CellTiter Blue assay in A673 cells treated by siControl, siFLI1-#3 or siBPEF1 for 48 h then followed by the incubation of auranofin ranging from 7.8 nmol/L to 1 μmol/L for 72h. Data are presented as the mean ± SD of three independent experiments performed in triplicate. (C) In vivo studies of auranofin, ganetespib and the combination treatment in an EWS xenograft mice model (n = 12 per group). The percentage of survival rate in control, auranofin treated, ganetespib treated, and auranofin in combination with ganetespib treated groups.
Predict drugs using three computational resolved on the 4–20% Mini-PROTEAN TGXTM approaches Precast Gels (Bio-Rad, Hercules, CA) and transferred onto PVDF membranes (Bio-Rad, Hercules, CA).
Disease-based approach: We used the disease Immunoblotting was done with the following antibodies: signature to query the drug expression database and rabbit polyclonal anti-FLI1 (C-19) (Santa Cruz selected the top 20 negatively scored hits. siRNA-based Biotechnology, Dallas, TX), mouse monoclonal anti-approach: We used the siEWS-FLI1 mediated signature β-actin (Sigma, St. Louis, MO), HRP conjugated goat to query the drug expression database and selected the top anti-rabbit IgG (Cell Signaling, Danvers, MA) and 20 positively scored hits. […] Membranes were developed using ECL database and select the top 20 negatively scored hits. […]
(Lafayette, CO). […] After 72 h of auranofin treatment, cell viability was evaluated using the 18. […]
In general terms: Alamar Blue is a resazurin reagent that responds to reducing activity.

`CC(=O)OC[C@H]1O[C@@H]([S-])[C@H](OC(C)=O)[C@@H](OC(C)=O)[C@@H]1OC(C)=O.CCP(CC)CC.[Au+]` [Auranofin, auranofin]: the phytohemagglutinin-induced mitogenesis result in the series with human lymphocyte is listed as “inhibited”. Besides, the “48-hour passive cutaneous anaphylaxis” value in series [1] is “inhibition”. For the same molecule, the mutation frequencies result in the series with mouse lymphoma is recorded as “induced increases in the mutation frequencies”. The “median PFS” value in the series with ovarian cancer is reported as 2.8 months. For the same molecule, in [2] (oral 0.5, 3 and 6 mg/kg/day), the teratogenicity in rabbits entry was “teratogenic potential”. Moreover, the values for the grossly malformed fetuses in series [2] (0.5 mg/kg/day (low)), in series [2] (3 mg/kg/day (middle)) and in series [2] (6 mg/kg/day (high)) were 1.9%, 4.7% and 15.5%, respectively. Besides, the ADCC entry in the series on mouse L929 fibroblasts is “inhibited”. For the same molecule, the “low-grade oxazolone-induced contact sensitivity” value in [3] was “stimulated”. Further, the “efficacy when given orally” value in [4] was “not effective”. In addition, in the series with rate leukocytes, the “particle-stimulated lysosomal enzyme release” value was “significantly reduced”. Also, the half-maximal inhibitory concentration (IC50) is more than 1000 nM in the series with A673 cells (siBPEF1 48 h, read-out: IC50 (siBPEF1)); 270 ± 20 nM in the series on A673 cells (siControl 48 h, read-out: IC50 (siControl)); more than 1000 nM in the series with A673 cells (siFLI1-#3 48 h, read-out: IC50 (siFLI1-#3)).

In general, IC50 refers to the concentration that inhibits the measured activity by half.
